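Exposure lasted 48 hours, with cells grown in 96-well plates and compounds tested at five concentrations. At the TGI there is no net growth.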
Key:
Assay in all cases: NCI tumour cell line growth inhibition, 48 h
ACHN renal = system: ACHN renal
HCT-116 colon = system: HCT-116 colon
OVCAR-8 ovarian = system: OVCAR-8 ovarian
NCI/ADR-RES ovarian = system: NCI/ADR-RES ovarian
NCI-H226 lung = system: NCI-H226 lung
MDA-MB-435 = system: MDA-MB-435
MOLT-4 leukemia = system: MOLT-4 leukemia
RXF 393 renal = system: RXF 393 renal
NCI-H23 lung = system: NCI-H23 lung
MDA-MB-231 breast = system: MDA-MB-231 breast
SN12C renal = system: SN12C renal
A498 renal = system: A498 renal
T-47D breast = system: T-47D breast
OVCAR-3 ovarian = system: OVCAR-3 ovarian
SF-268 CNS = system: SF-268 CNS
U251 CNS = system: U251 CNS
OVCAR-4 ovarian = system: OVCAR-4 ovarian
SF-295 CNS = system: SF-295 CNS
HCC-2998 colon = system: HCC-2998 colon
SK-OV-3 ovarian = system: SK-OV-3 ovarian
HCT-15 colon = system: HCT-15 colon
MALME-3M melanoma = system: MALME-3M melanoma
SNB-19 CNS = system: SNB-19 CNS
HS 578T breast = system: HS 578T breast
MCF7 breast = system: MCF7 breast
SF-539 CNS = system: SF-539 CNS
HOP-62 NSCLC = system: HOP-62 NSCLC
SK-MEL-28 melanoma = system: SK-MEL-28 melanoma
SK-MEL-2 melanoma = system: SK-MEL-2 melanoma
A549 NSCLC = system: A549 NSCLC
SNB-75 CNS = system: SNB-75 CNS
M14 melanoma = system: M14 melanoma
HT29 colon = system: HT29 colon
PC-3 prostate = system: PC-3 prostate
KM12 colon = system: KM12 colon
UO-31 renal = system: UO-31 renal
CCRF-CEM leukemia = system: CCRF-CEM leukemia
UACC-62 melanoma = system: UACC-62 melanoma
EKVX NSCLC = system: EKVX NSCLC
BT-549 breast = system: BT-549 breast
786-0 renal = system: 786-0 renal
NCI-H460 lung = system: NCI-H460 lung
SW-620 colon = system: SW-620 colon
UACC-257 melanoma = system: UACC-257 melanoma
OVCAR-5 ovarian = system: OVCAR-5 ovarian
MDA-N = system: MDA-N
CAKI-1 renal = system: CAKI-1 renal
K-562 leukemia = system: K-562 leukemia
COLO 205 colon = system: COLO 205 colon
DU-145 prostate = system: DU-145 prostate
NCI-H522 lung = system: NCI-H522 lung
RPMI-8226 leukemia = system: RPMI-8226 leukemia
IGROV1 ovarian = system: IGROV1 ovarian
SR leukemia = system: SR leukemia
TK-10 renal = system: TK-10 renal
HL-60(TB) leukemia = system: HL-60(TB) leukemia
SK-MEL-5 melanoma = system: SK-MEL-5 melanoma

For `COc1cc(/C=N/n2c(C)n[nH]c2=O)cc(OC)c1OC`, the TGI (ACHN renal) was over 100 µM, the TGI (HCT-116 colon) was over 100 µM and the TGI (OVCAR-8 ovarian) was over 100 µM. For the same compound, the TGI (NCI/ADR-RES ovarian) was over 100 µM, the TGI (NCI-H226 lung) was over 100 µM and the TGI (MDA-MB-435) was over 100 µM. The TGI (MOLT-4 leukemia) was over 100 µM, the TGI (RXF 393 renal) was over 100 µM and the TGI (NCI-H23 lung) was over 100 µM. For the same compound, the TGI (MDA-MB-231 breast) was over 100 µM, the TGI (SN12C renal) was over 100 µM and the TGI (A498 renal) was over 100 µM. It also gave a TGI (T-47D breast) of over 100 µM, a TGI (OVCAR-3 ovarian) of over 100 µM and a TGI (SF-268 CNS) of over 100 µM. It also gave a TGI (U251 CNS) of over 100 µM, a TGI (OVCAR-4 ovarian) of over 100 µM and a TGI (SF-295 CNS) of over 100 µM. For the same compound, the TGI (HCC-2998 colon) was over 100 µM, the TGI (SK-OV-3 ovarian) was over 100 µM and the TGI (HCT-15 colon) was over 100 µM. It also gave a TGI (MALME-3M melanoma) of over 100 µM, a TGI (SNB-19 CNS) of over 100 µM and a TGI (HS 578T breast) of 49.7 µM. It also gave a TGI (MCF7 breast) of over 100 µM, a TGI (SF-539 CNS) of over 100 µM and a TGI (HOP-62 NSCLC) of over 100 µM. The TGI (SK-MEL-28 melanoma) was over 100 µM, the TGI (SK-MEL-2 melanoma) was over 100 µM and the TGI (A549 NSCLC) was over 100 µM. It also gave a TGI (SNB-75 CNS) of over 100 µM, a TGI (M14 melanoma) of over 100 µM and a TGI (HT29 colon) of over 100 µM. The TGI (PC-3 prostate) was over 100 µM, the TGI (KM12 colon) was over 100 µM and the TGI (UO-31 renal) was over 100 µM. It also gave a TGI (CCRF-CEM leukemia) of over 100 µM, a TGI (UACC-62 melanoma) of over 100 µM and a TGI (EKVX NSCLC) of over 100 µM. For the same compound, the TGI (BT-549 breast) was over 100 µM, the TGI (786-0 renal) was over 100 µM and the TGI (NCI-H460 lung) was over 100 µM. The TGI (SW-620 colon) was over 100 µM, the TGI (UACC-257 melanoma) was over 100 µM and the TGI (OVCAR-5 ovarian) was over 100 µM. It also gave a TGI (MDA-N) of over 100 µM, a TGI (CAKI-1 renal) of over 100 µM and a TGI (K-562 leukemia) of over 100 µM. It also gave a TGI (COLO 205 colon) of over 100 µM.
For `CN1N=C(c2ccccc2)c2cc(Cl)ccc2N=C1N/N=C/c1ccc(N(C)C)cc1`, the TGI (ACHN renal) was over 100 µM, the TGI (DU-145 prostate) was over 100 µM and the TGI (HCT-116 colon) was over 100 µM. It also gave a TGI (OVCAR-8 ovarian) of over 100 µM, a TGI (NCI/ADR-RES ovarian) of over 100 µM and a TGI (NCI-H226 lung) of over 100 µM. The TGI (MDA-MB-435) was over 100 µM, the TGI (MOLT-4 leukemia) was over 100 µM and the TGI (RXF 393 renal) was over 100 µM. For the same compound, the TGI (NCI-H23 lung) was over 100 µM, the TGI (MDA-MB-231 breast) was over 100 µM and the TGI (SN12C renal) was over 100 µM. It also gave a TGI (T-47D breast) of over 100 µM, a TGI (OVCAR-3 ovarian) of over 100 µM and a TGI (SF-268 CNS) of over 100 µM. It also gave a TGI (NCI-H522 lung) of over 100 µM, a TGI (U251 CNS) of over 100 µM and a TGI (OVCAR-4 ovarian) of over 100 µM. It also gave a TGI (SF-295 CNS) of over 100 µM, a TGI (HCC-2998 colon) of over 100 µM and a TGI (SK-OV-3 ovarian) of over 100 µM. For the same compound, the TGI (HCT-15 colon) was over 100 µM, the TGI (SNB-19 CNS) was over 100 µM and the TGI (MCF7 breast) was over 100 µM. For the same compound, the TGI (SF-539 CNS) was over 100 µM, the TGI (RPMI-8226 leukemia) was over 100 µM and the TGI (HOP-62 NSCLC) was over 100 µM. For the same compound, the TGI (SK-MEL-28 melanoma) was over 100 µM, the TGI (IGROV1 ovarian) was over 100 µM and the TGI (A549 NSCLC) was over 100 µM. For the same compound, the TGI (SR leukemia) was over 100 µM, the TGI (SNB-75 CNS) was over 100 µM and the TGI (M14 melanoma) was over 100 µM. For the same compound, the TGI (HT29 colon) was over 100 µM, the TGI (PC-3 prostate) was over 100 µM and the TGI (TK-10 renal) was over 100 µM. The TGI (KM12 colon) was over 100 µM, the TGI (UO-31 renal) was over 100 µM and the TGI (CCRF-CEM leukemia) was over 100 µM. It also gave a TGI (HL-60(TB) leukemia) of over 100 µM, a TGI (UACC-62 melanoma) of over 100 µM and a TGI (EKVX NSCLC) of over 100 µM. The TGI (BT-549 breast) was over 100 µM, the TGI (786-0 renal) was over 100 µM and the TGI (NCI-H460 lung) was over 100 µM. The TGI (SW-620 colon) was over 100 µM, the TGI (UACC-257 melanoma) was over 100 µM and the TGI (MDA-N) was over 100 µM. The TGI (SK-MEL-5 melanoma) was over 100 µM, the TGI (CAKI-1 renal) was over 100 µM and the TGI (K-562 leukemia) was over 100 µM. The TGI (COLO 205 colon) was over 100 µM.

From PubChem BioAssay (NCI)
